Reference: patent publication US10597388B2, “Pyridazinone herbicides” (FMC CORPORATION, priority 2014, dated 2020)

Tests used:
Assay type in all cases: in vivo
[1] = system: ALOMY, blackgrass (Alopecurus myosuroides); assay: Test F mixtures with commercial herbicides, Post- or Pre-emergence; details: Table F3, Post-emergence, scale 0-100
Procedure: (§1) This test evaluated the effect of mixtures of Compound 1 or Compound 2 with various commercial herbicides on multiple plant species. Seeds of multiple plant species selected were planted into Sandy Loam soil and treated either Post-emergence or Pre-emergence with test chemicals formulated in a non-phytotoxic solvent mixture. Plants were grown in a greenhouse using supplemental lighting to maintain a photoperiod of approximately 16 h; daytime and nighttime temperatures were approximately 24-30 and 19-21° C., respectively. Balanced fertilizer was applied through the watering system. Treated plants and controls were maintained in a greenhouse for 20 d, after which time all species were compared to controls and visually evaluated. Plant response ratings summarized in Tables F1 through F4 and are based on a scale of 0 to 100 where 0 is no effect and 100 is complete control. A dash (-) response means no test result. Application rates (i.e. “Rate”) are expressed in grams of active ingredient per hectare (g a.i./ha). In the following tables KCHSC is kochia (Kochia scoparia), LOLMU in Italian Ryegrass (Lolium multiflorum), AMBEL is common ragweed (Ambrosia elatior), ECHCG is barnyardgrass (Echinochloa crus-galli), SETVI is giant foxtail (Setaria faberii), AMARE is redroot pigweed (Amaranthus retroflexus), ALOMY is blackgrass (Alopecurus myosuroides) and GALAP is galium (Galium aparine). “Obsd.” is observed effect. “Exp.” is expected effect calculated from Colby's Equation.
(§2) Colby's Equation was used to determine the herbicidal effects expected from the mixtures. Colby's Equation (Colby, S. R. “Calculating Synergistic and Antagonistic Responses of Herbicide Combinations,” Weeds, 15(1), pp 20-22 (1967)) calculates the expected additive effect of herbicidal mixtures, and for two active ingredients is of the form: Pa+b=Pa+Pb−(PaPb/100)
(§3) wherein Pa+b is the percentage effect of the mixture expected from additive contribution of the individual components:
(§4) Pa is the observed percentage effect of the first active ingredient at the same use rate as in the mixture, and
(§5) Pb is the observed percentage effect of the second active ingredient at the same use rate as in the mixture.

[2] = system: AMARE, redroot pigweed (Amaranthus retroflexus); assay: as above; details: scale 0-100
Procedure: as §1, §2, §3, §4, §5

[3] = system: AMBEL, common ragweed (Ambrosia elatior); assay: as above; details: scale 0-100
Procedure: as §1, §2, §3, §4, §5

[4] = system: ECHCG, barnyardgrass (Echinochloa crus-galli); assay: as above; details: scale 0-100
Procedure: as §1, §2, §3, §4, §5

[5] = system: GALAP, galium (Galium aparine); assay: as above; details: Table F3, Post-emergence, scale 0-100
Procedure: as §1, §2, §3, §4, §5

[6] = system: KCHSC, kochia (Kochia scoparia); assay: as above; details: scale 0-100
Procedure: as §1, §2, §3, §4, §5

[7] = system: LOLMU, Italian Ryegrass (Lolium multiflorum); assay: as above; details: scale 0-100
Procedure: as §1, §2, §3, §4, §5

[8] = system: SETVI, giant foxtail (Setaria faberii); assay: as above; details: scale 0-100
Procedure: as §1, §2, §3, §4, §5

[9] = system: Canada thistle (Cirsium arvense); assay: Test D controlled growth environment herbicide test, pre- and postemergence
In short: (§6)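 Species sown in silt loam and sprayed preemergence, or grown in peat-based medium to 2–18 cm (1- to 4-leaf stage) and sprayed postemergence, with compounds in non-phytotoxic solvent plus surfactant. Visual injury scored versus controls after 14–21 d in a controlled environment, 0 (no effect) to 100 (complete control).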

[10] = system: geranium, cutleaf (cutleaf geranium, Geranium dissectum); assay: as above
In short: as §6

[11] = Pre-emergence, Rate 16 g a.i./ha
[12] = Pre-emergence, Rate 62 g a.i./ha
[13] = Table F3, Post-emergence, Rate 16 g a.i./ha
[14] = Table F3, Post-emergence, Rate 62 g a.i./ha
[15] = Postemergence, 31 g ai/ha, scale 0 to 100 (0 no effect, 100 complete control)
[16] = Postemergence, 125 g ai/ha, visual rating on scale 0 (no effect) to 100 (complete control), 14 to 21 d
[17] = Postemergence, 250 g ai/ha, scale 0 to 100 (0 no effect, 100 complete control)
[18] = Preemergence, 125 g ai/ha, scale 0 to 100 (0 no effect, 100 complete control)
[19] = Preemergence, 250 g ai/ha, scale 0 to 100, 0 no effect, 100 complete control
[20] = postemergence, 62 g ai/ha, scale 0 to 100, 0 no effect, 100 complete control

Structure (SMILES): Cc1cc(C)c2sc(C)c(-c3c(O)c(C)nn(C)c3=O)c2c1 [Compound 2, 5-hydroxy-2,6-dimethyl-4-(2,5,7-trimethylbenzo[b]thien-3-yl)-3(2H)-pyridazinone]
- ALOMY Obsd. ([1]; Rate 16 g a.i./ha): 20
- ALOMY Obsd. ([1]; Rate 62 g a.i./ha): 60
- AMARE Obsd. [2, 11]: 25
- AMARE Obsd. [2, 12]: 75
- AMARE Obsd. [2, 13]: 25
- AMARE Obsd. [2, 14]: 80
- AMBEL Obsd. [3, 11]: 30
- AMBEL Obsd. [3, 12]: 95
- AMBEL Obsd. [3, 13]: 40
- AMBEL Obsd. [3, 14]: 80
- ECHCG Obsd. [4, 11]: 0
- ECHCG Obsd. [4, 12]: 25
- ECHCG Obsd. [4, 13]: 5
- ECHCG Obsd. [4, 14]: 20
- GALAP Obsd. ([5]; Rate 16 g a.i./ha): 100
- GALAP Obsd. ([5]; Rate 62 g a.i./ha): 100
- KCHSC Obsd. [6, 11]: 0
- KCHSC Obsd. [6, 12]: 0
- KCHSC Obsd. [6, 13]: 50
- KCHSC Obsd. [6, 14]: 75
- LOLMU Obsd. [7, 11]: 0
- LOLMU Obsd. [7, 12]: 50
- LOLMU Obsd. [7, 13]: 75
- LOLMU Obsd. [7, 14]: 95
- SETVI Obsd. [8, 11]: 60
- SETVI Obsd. [8, 12]: 98
- SETVI Obsd. [8, 13]: 15
- SETVI Obsd. [8, 14]: 80

Structure (SMILES): Cc1nn(C)c(=O)c(-c2cccc3ccc(Br)cc23)c1O [Compound 126]
- Canada Thistle plant response rating [9, 15]: 98
- Plant response rating, Canada Thistle [9, 16]: 98
- Plant response rating, Canada Thistle [9, 17]: 100
- Plant response rating (scale of 0 to 100), Canada Thistle ([9]; Preemergence, 31 g ai/ha): 0
- Plant response rating, Canada Thistle ([9]; Preemergence, 62 g ai/ha, scale 0 to 100 (0 no effect, 100 complete control)): 15
- Plant response rating, Canada Thistle [9, 18]: 95
- Plant response rating, Canada Thistle [9, 19]: 95
- Plant response rating, Canada Thistle [9, 20]: 100
- Geranium, Cutleaf plant response rating [10, 15]: 30
- Plant response rating, Geranium, Cutleaf [10, 16]: 80
- Plant response rating, Geranium, Cutleaf [10, 17]: 90
- Plant response rating (scale of 0 to 100), Geranium, Cutleaf ([10]; Preemergence, 31 g ai/ha): 0
- Plant response rating (scale of 0 to 100), Geranium, Cutleaf ([10]; Preemergence, 62 g ai/ha): 0
- Plant response rating, Geranium, Cutleaf [10, 18]: 0
- Plant response rating, Geranium, Cutleaf [10, 19]: 15
- Plant response rating, Geranium, Cutleaf [10, 20]: 40
